The values below come from PubChem BioAssay AID330 (DTP/NCI, 2004).

“And” between values parts separate entries of the source, which are not always exact repeats. Identical values can stand only once. Inconclusive results and toxic doses are left out. Square brackets hold non-standard residues; d marks the D form. Peptide text beside a SMILES is read from it. * marks the point of attachment. ξ: configuration not given here. ξF = NC(Cc1ccccc1)C(=O)O; Cbz = O=C(OCc1ccccc1)*; Sar = CNCC(=O)O

The assay relates to P388 leukemia ip, CD2F1 mice, survival T/C. The assay is described as follows: NCI In Vivo Anticancer Drug Screen. Data for tumor model P388 Leukemia (intraperitoneal) in CD2F1 (CDF1) mice. Particulars: endpoint: median survival time, higher = longer survival. The procedure: The antitumor activity of compounds was measured in mice bearing transplantable tumors. Survival or tumor size were measured and the results are expressed as the measurement made in the treated group (T) divided by the measurement made in the vehicle treated control group (C). The tumor model used in this assay is P388 Leukemia (intraperitoneal) in CD2F1 (CDF1) mice

The mark [1] stands for this setting: dose: 6.25 mg/kg/injection, schedule: Q01DX009 (ip), vehicle: Klucel (hydroxypropylcellulose) (HPC).
The mark [2] stands for this setting: dose: 12.5 mg/kg/injection, schedule: Q01DX009 (ip), vehicle: Klucel (hydroxypropylcellulose) (HPC).
The mark [3] stands for this setting: dose: 25.0 mg/kg/injection, schedule: Q01DX009 (ip), vehicle: Klucel (hydroxypropylcellulose) (HPC).
Setting [4] is: dose: 50.0 mg/kg/injection, schedule: Q01DX009 (ip), vehicle: Klucel (hydroxypropylcellulose) (HPC).
Setting [5] is: dose: 100.0 mg/kg/injection, schedule: Q01DX009 (ip), vehicle: Klucel (hydroxypropylcellulose) (HPC).
The mark [6] stands for this setting: dose: 50.0 mg/kg/injection, schedule: Q01DX009 (ip), vehicle: saline.
The mark [7] stands for this setting: dose: 100.0 mg/kg/injection, schedule: Q01DX009 (ip), vehicle: saline.
Where [8] appears, read: dose: 60.0 mg/kg/injection, schedule: Q01DX005 (ip), vehicle: saline with Tween-80.
The mark [9] stands for this setting: dose: 240.0 mg/kg/injection, schedule: Q01DX005 (ip), vehicle: saline with Tween-80.
[10] abbreviates: dose: 50.0 mg/kg/injection, schedule: Q01DX009 (ip), vehicle: saline with Tween-80.
Setting [11] is: dose: 100.0 mg/kg/injection, schedule: Q01DX009 (ip), vehicle: saline with Tween-80.
Setting [12] is: dose: 120.0 mg/kg/injection, schedule: Q01DX005 (ip), vehicle: saline with Tween-80.
[13] abbreviates: dose: 50.0 mg/kg/injection, schedule: Q04DX003 (ip), vehicle: saline with Tween-80.
[14] abbreviates: dose: 100.0 mg/kg/injection, schedule: Q04DX003 (ip), vehicle: saline with Tween-80.
[15] abbreviates: dose: 50.0 mg/kg/injection, schedule: Q01DX005 (ip), vehicle: saline with Tween-80.
[16] abbreviates: dose: 100.0 mg/kg/injection, schedule: Q01DX005 (ip), vehicle: saline with Tween-80.
Setting [17] is: dose: 200.0 mg/kg/injection, schedule: Q01DX005 (ip), vehicle: saline with Tween-80.
[18] abbreviates: dose: 25.0 mg/kg/injection, schedule: Q01DX005 (ip), vehicle: Klucel (hydroxypropylcellulose) (HPC).
The mark [19] stands for this setting: dose: 50.0 mg/kg/injection, schedule: Q01DX005 (ip), vehicle: Klucel (hydroxypropylcellulose) (HPC).
The mark [20] stands for this setting: dose: 100.0 mg/kg/injection, schedule: Q01DX005 (ip), vehicle: Klucel (hydroxypropylcellulose) (HPC).
Setting [21] is: dose: 200.0 mg/kg/injection, schedule: Q01DX005 (ip), vehicle: Klucel (hydroxypropylcellulose) (HPC).
The mark [22] stands for this setting: dose: 200.0 mg/kg/injection, schedule: Q01DX009 (ip), vehicle: saline with Tween-80.
The mark [23] stands for this setting: dose: 200.0 mg/kg/injection, schedule: Q01DX009 (ip), vehicle: saline.

Consider `CCOC(=O)CNCc1ccc(Cl)c(Cl)c1`, for which the T/C was 100 % of control under setting [1]; 103 % of control and 97 % of control under setting [2]; 100 % of control under setting [3]; 108 % of control and 94 % of control under setting [4]; 104 % of control under setting [5].

Regarding `N=c1c2[nH]cnc2ncn1O`, the T/C (dose: 60.0 mg/kg/injection, schedule: Q01DX005 (ip), vehicle: Klucel (hydroxypropylcellulose) (HPC)) is 92 % of control and the T/C (dose: 120.0 mg/kg/injection, schedule: Q01DX005 (ip), vehicle: Klucel (hydroxypropylcellulose) (HPC)) is 93 % of control.

Consider `CN(C)CCC(=O)c1ccccc1`, for which the T/C reads like this: under setting [6], 104 % of control; under setting [7], 110 % of control.

Take `O=C(Nc1cccc(Br)c1)Oc1ccc(Cl)c2cccnc12`: the T/C is, setting by setting: (dose: 7.5 mg/kg/injection, schedule: Q01DX005 (ip), vehicle: saline with Tween-80) 107 % of control; (dose: 15.0 mg/kg/injection, schedule: Q01DX005 (ip), vehicle: saline with Tween-80) 103 % of control; (dose: 30.0 mg/kg/injection, schedule: Q01DX005 (ip), vehicle: saline with Tween-80) 103 % of control and 91 % of control; under setting [8], 100 % of control and 111 % of control; under setting [9], 88 % of control.

With `S=c1[nH]nc2nc3c4ccccc4c4ncccc4c3nn12`, the T/C by setting is: (dose: 100.0 mg/kg/injection, schedule: Q01DX001 (ip), vehicle: saline with Tween-80) 92 % of control; (dose: 200.0 mg/kg/injection, schedule: Q01DX001 (ip), vehicle: saline with Tween-80) 91 % of control; (dose: 400.0 mg/kg/injection, schedule: Q01DX001 (ip), vehicle: saline with Tween-80) 100 % of control.

With `CCOC(=O)CN1CCCC(C(=O)CC2(O)C3(Cl)C4(Cl)C5(Cl)C(Cl)(Cl)C6(Cl)C4(Cl)C2(Cl)C6(Cl)C53Cl)C1` (stereo unspecified), the T/C reads like this: (dose: 12.5 mg/kg/injection, schedule: Q01DX009 (ip), vehicle: saline with Tween-80) 97 % of control; (dose: 25.0 mg/kg/injection, schedule: Q01DX009 (ip), vehicle: saline with Tween-80) 98 % of control; under setting [10], 101 % of control; under setting [11], 100 % of control.

As for `COc1ccccc1C1c2cc3c(cc2OC(C)(OC)C1C)OCO3` (stereo unspecified), the T/C runs as follows: under setting [8], 93 % of control; under setting [12], 90 % of control; under setting [9], 92 % of control.

As to `CN(C)c1nc(=O)c2ccccc2o1`, the T/C (dose: 15.0 mg/kg/injection, schedule: Q01DX005 (ip), vehicle: saline) was 100 % of control; the T/C (dose: 30.0 mg/kg/injection, schedule: Q01DX005 (ip), vehicle: saline) was 97 % of control; the T/C (dose: 60.0 mg/kg/injection, schedule: Q01DX005 (ip), vehicle: saline) was 101 % of control and 95 % of control.

For the compound `c1ccc2c(CN3CCCCC3)c[nH]c2c1`, the T/C reads like this: under setting [13], 100 % of control; under setting [14], 90 % of control.

As for `C[Si](C)(C)SCCS[Si](C)(C)C`, the T/C was 98 % of control under setting [15], 98 % of control under setting [16] and 95 % of control under setting [17].

As for `COC(=O)C1=COC(OC2OC(COC(C)=O)C(OC(C)=O)C(OC(C)=O)C2OC(C)=O)C2C(C)CC(OC(C)=O)C12` (stereo unspecified), the T/C reads like this: (dose: 12.5 mg/kg/injection, schedule: Q01DX005 (ip), vehicle: Klucel (hydroxypropylcellulose) (HPC)) 105 % of control; under setting [18], 98 % of control; under setting [19], 96 % of control.

On to `CC(NC(=O)OCc1ccccc1)C(=O)N1CCCC1C(=O)O` (stereo unspecified), for which the T/C is 91 % of control under setting [19], 90 % of control under setting [20] and 98 % of control under setting [21].

`COc1ccc(C(=O)N2CC(OC(C)=O)=CC2=O)cc1`: the T/C under setting [4] is 107 % of control; the T/C under setting [5] is 110 % of control; the T/C (dose: 200.0 mg/kg/injection, schedule: Q01DX009 (ip), vehicle: Klucel (hydroxypropylcellulose) (HPC)) was 106 % of control.

Regarding `Cc1cc2ncn(CC(=O)O)c2cc1C`, the T/C runs as follows: under setting [13], 100 % of control; under setting [14], 90 % of control.

As to `CC(O)CNc1n[nH]c(=O)c2ccccc12` (stereo unspecified), the T/C is 101 % of control under setting [10], 104 % of control under setting [11] and 94 % of control under setting [22].

For `Cc1cc(N)ncc1[N+](=O)[O-]`, the T/C is 99 % of control under setting [15], 101 % of control under setting [16] and 98 % of control under setting [17].

`OCCSCc1ccc(F)cc1`: the T/C by setting is: under setting [19], 101 % of control; under setting [20], 97 % of control; under setting [21], 104 % of control.

For `CN(C)CC(O)c1ccc2cc(Br)c3ccccc3c2c1` (stereo unspecified), the T/C by setting is: (dose: 12.5 mg/kg/injection, schedule: Q01DX005 (ip), vehicle: saline with Tween-80) 97 % of control; (dose: 25.0 mg/kg/injection, schedule: Q01DX005 (ip), vehicle: saline with Tween-80) 106 % of control; under setting [15], 100 % of control and 97 % of control.

For `O=[N+]([O-])c1ccc(OS(=O)(=O)/C=C/c2ccccc2)cc1`, the T/C (dose: 100.0 mg/kg/injection, schedule: Q01DX001 (ip), vehicle: Klucel (hydroxypropylcellulose) (HPC)) was 99 % of control; the T/C (dose: 200.0 mg/kg/injection, schedule: Q01DX001 (ip), vehicle: Klucel (hydroxypropylcellulose) (HPC)) is 100 % of control; the T/C (dose: 400.0 mg/kg/injection, schedule: Q01DX001 (ip), vehicle: Klucel (hydroxypropylcellulose) (HPC)) is 94 % of control.

In the case of `CCN(CC)CCOC(=O)Cc1cccc2c(=O)cc(-c3cccs3)oc12`, the T/C was 106 % of control under setting [18]; 104 % of control and 117 % of control under setting [19]; 109 % of control under setting [20]; 161 % of control under setting [21].

Turning to `CCCCCCCCCC(C)(O)C#CC(C)(O)CCCCCCCCC` (stereo unspecified), the T/C runs as follows: under setting [11], 87 % of control; under setting [22], 95 % of control; (dose: 400.0 mg/kg/injection, schedule: Q04DX003 (ip), vehicle: saline with Tween-80) 86 % of control.

`NNS(=O)(=O)c1ccccc1`: the T/C runs as follows: under setting [10], 103 % of control; under setting [11], 103 % of control.

In the case of `CNc1ccc(/C=C/c2ccnc3ccccc23)cc1`, the T/C by setting is: (dose: 3.12 mg/kg/injection, schedule: Q01DX009 (ip), vehicle: Klucel (hydroxypropylcellulose) (HPC)) 95 % of control and 98 % of control; under setting [1], 108 % of control and 111 % of control and 112 % of control; under setting [2], 113 % of control and 97 % of control; under setting [3], 109 % of control and 87 % of control.

For `ClC1c2ccccc2Cc2cccnc21` (stereo unspecified), the T/C by setting is: under setting [10], 102 % of control; under setting [11], 101 % of control; under setting [22], 95 % of control.

Turning to `CC1(Br)CN(C(=S)Nc2ccccc2)C1=O` (stereo unspecified), the T/C runs as follows: under setting [15], 108 % of control; under setting [16], 105 % of control; under setting [17], 104 % of control.

Take `CN(C)CCSc1sc(N)nc1-c1ccccc1`: the T/C is 100 % of control under setting [6], 98 % of control under setting [7] and 114 % of control under setting [23].

Consider `O=C=Nc1nc(Cl)c(SC(F)(F)F)c(Cl)n1`, for which the T/C was 97 % of control under setting [8], 98 % of control under setting [12] and 108 % of control under setting [9].

Take `CN(CC(=O)NC(Cc1ccccc1)C(=O)O)C(=O)OCc1ccccc1` (stereo unspecified) (Cbz-[Sar]-[ξF]-OH): the T/C was 105 % of control under setting [15], 102 % of control under setting [16] and 100 % of control under setting [17].

Take `CN(C)CCNC(c1ccccc1)C(O)c1ccccc1` (stereo unspecified): the T/C is 100 % of control under setting [4] and 101 % of control under setting [5].

Regarding `COc1ccc2c3c(cnc2c1)P(C)(=O)CC3` (stereo unspecified), the T/C is 101 % of control under setting [6], 96 % of control under setting [7] and 102 % of control under setting [23].

Take `O=S(/N=C/c1ccccc1)c1ccc(Cl)cc1` (stereo unspecified): the T/C is 96 % of control under setting [10] and 89 % of control under setting [11].

On to `C[C@]12CC[C@@H]3c4cc(N)c(O)cc4CC[C@H]3[C@@H]1CC[C@@H]2O`, for which the T/C was 100 % of control under setting [15], 103 % of control under setting [16] and 100 % of control under setting [17].
